From patent US20240174690A1, “ANNULATED 2-AMINO-3-CYANO THIOPHENES AND DERIVATIVES FOR THE TREATMENT OF CANCER” (BOEHRINGER INGELHEIM INTERNATIONAL GMBH, priority 2021, published 2024)

What was measured:
[1] = test system: KRAS G12C-dependent Ba/F3 cells; assay: Ba/F3 proliferation assay, KRAS G12C; assay type: cell-based; settings: Mus musculus, BaF3, 72 h, AlamarBlue
Procedure, shortened: (§1)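 Viability is measured as AlamarBlue fluorescence in Ba/F3 cells that depend on a transduced mutant KRAS isoform for growth without IL-3. Each treatment is run in technical duplicate, and dose-response curves are fitted.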

[2] = Metabolic (microsomal) stability assay, human liver microsomes (HLM); assay type: in vitro ADME; settings: predicted clearance as percent of liver blood flow, 1 μM
Procedure, shortened: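 LC-MS/MS tracked parent disappearance at 0, 5, 15, 30 and 60 min in NADPH-initiated incubations with 1 mg/mL human microsomal protein and 1 μM compound at 37°C, pH 7.5. First-order fits gave intrinsic clearance, which was scaled up and reported as % QH. NADPH-free controls were also run.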

LOVO cells = assay: LOVO CTG proliferation assay (120 h) (CRC, G13D); assay type: cell-based; settings: Homo sapiens, CTG 120 h
Procedure, shortened: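 LOVO cells, 1000 per well in DMEM + 10% FCS, were plated overnight and then dosed with compound from DMSO stock. After 120 h at 37 °C, viability was read by CellTiter-Glo luminescence as a percentage of DMSO controls. IC50 was derived by four-parameter non-linear regression.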

[3] = test system: KRAS G12V-dependent Ba/F3 cells; assay: Ba/F3 proliferation assay, KRAS G12V; assay type: cell-based; settings: Mus musculus, BaF3, 72 h, AlamarBlue;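 note: proliferation IC50 in KRAS G12V-dependent Ba/F3 cells read by AlamarBlue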
Procedure, shortened: as §1

| SMILES | IC50 [1] [nM] | HLM QH [2] [%] | IC50 (LOVO cells) [nM] | IC50 [3] [nM] |
| --- | --- | --- | --- | --- |
| C[C@H](Oc1cc(N2CCNC[C@]23CCOC3)nc(-c2onc3c2CCC[C@@]32CCCc3sc(N)c(C#N)c32)n1)[C@@H]1CCCN1C [I-12] | 224 | 36 | 824 | 343 |
| C[C@H](Oc1cc(N2CCNC[C@@]23CCOC3)nc(-c2onc3c2CCC[C@@]32CCCc3sc(N)c(C#N)c32)n1)[C@@H]1CCCN1C [I-13] | 1540 | <24 | 1510 | 821 |
| C[C@H](Oc1cc(-n2cncc3ccnc2-3)nc(-c2onc3c2CCC[C@@]32CCCc3sc(N)c(C#N)c32)n1)[C@@H]1CCCN1C [I-14] | 15 | – | 1350 | 7 |
| C[C@H]1CNCCCN1c1nc(-c2onc3c2CCC[C@@]32CCCc3sc(N)c(C#N)c32)cc(C(F)(F)F)n1 [I-15] | 930 | 38 | – | – |
| C[C@H](Oc1cc(-c2cn(C)nn2)nc(-c2onc3c2CCC[C@@]32CCCc3sc(N)c(C#N)c32)n1)[C@@H]1CCCN1C [I-16] | 21 | 31 | – | 9 |
| CO[C@@H]1C[C@@H]([C@H](C)Oc2cc(-c3cnn(C)n3)nc(-c3onc4c3CCC[C@@]43CCCc4sc(N)c(C#N)c43)n2)N(C)C1 [I-17] | 40 | 56 | 730 | 23 |
| C[C@H](Oc1cc(-n2cncn2)nc(-c2onc3c2CCC[C@@]32CCCc3sc(N)c(C#N)c32)n1)[C@@H]1CCCN1C [I-18] | 11 | 48 | 260 | 8 |
| C[C@H](Oc1cc(N2Cc3cnn(C)c3C2)nc(-c2onc3c2CCC[C@@]32CCCc3sc(N)c(C#N)c32)n1)[C@@H]1CCCN1C [I-19] | 76 | <24 | 479 | 23 |
| C[C@H](Oc1cc(-n2cc(-c3cncs3)nn2)nc(-c2noc3c2CCC[C@@]32CCCc3sc(N)c(C#N)c32)n1)[C@@H]1CCCN1C [II-125] | 17 | <24 | 97 | 16 |
| C[C@H](Oc1cc(-n2cnc(C(=O)N(C)C)c2)nc(-c2noc3c2CCC[C@@]32CCCc3sc(N)c(C#N)c32)n1)[C@@H]1CCCN1C [II-126] | 32 | 25 | 251 | 26 |
| C[C@H](Oc1cc(-c2ccn([C@H]3CCOC3)n2)nc(-c2noc3c2CCC[C@@]32CCCc3sc(N)c(C#N)c32)n1)[C@@H]1CCCN1C [II-127] | 13 | <24 | 131 | 13 |
| C[C@H](Oc1cc(-c2ccn(Cc3ncco3)n2)nc(-c2noc3c2CCC[C@@]32CCCc3sc(N)c(C#N)c32)n1)[C@@H]1CCCN1C [II-128] | 10 | <24 | 91 | 31 |
| C[C@H](Oc1cc(-c2ccn(C[C@H]3CCOC3)n2)nc(-c2noc3c2CCC[C@@]32CCCc3sc(N)c(C#N)c32)n1)[C@@H]1CCCN1C [II-129] | 11 | <24 | 69 | 9 |
| C[C@H](Oc1cc(-n2ccc(-c3cnccn3)n2)nc(-c2noc3c2CCC[C@@]32CCCc3sc(N)c(C#N)c32)n1)[C@@H]1CCCN1C [II-130] | 6 | <24 | 190 | 6 |
| C[C@H](Oc1cc(-n2nccc2-c2ccncc2)nc(-c2noc3c2CCC[C@@]32CCCc3sc(N)c(C#N)c32)n1)[C@@H]1CCCN1C [II-131] | 16 | <24 | 225 | 19 |
| C[C@H](Oc1cc(-n2cc(C(=O)N(C)C)nn2)nc(-c2noc3c2CCC[C@@]32CCCc3sc(N)c(C#N)c32)n1)[C@@H]1CCCN1C [II-132] | 10 | 36 | 120 | 6 |
| C[C@H](Oc1cc(-c2cccc(C(N)=O)c2)nc(-c2noc3c2CCC[C@@]32CCCc3sc(N)c(C#N)c32)n1)[C@@H]1CCCN1C [II-133] | 33 | <24 | 459 | 19 |
| C[C@H](O)Cn1ncc(-c2cc(O[C@@H](C)[C@@H]3CCCN3C)nc(-c3noc4c3CCC[C@@]43CCCc4sc(N)c(C#N)c43)n2)n1 [II-134] | 41 | 34 | 3240 | 28 |
| C[C@H]1CNCCCN1c1cc(-c2ccn(C)n2)nc(-c2noc3c2CCC[C@@]32CCCc3sc(N)c(C#N)c32)n1 [II-140] | 1020 | <24 | 5490 | – |

| SMILES | IC50 [1] [nM] | HLM QH [2] [%] | IC50 (LOVO cells) [nM] | IC50 [3] [nM] |
| --- | --- | --- | --- | --- |
| C[C@H](Oc1cc(-n2cc3c(n2)CCN(C)C3)nc(-c2noc3c2CCC[C@@]32CCCc3sc(N)c(C#N)c32)n1)[C@@H]1CCCN1C [II-141] | 134 | 28 | 284 | 170 |
| C[C@H]1CNCCCN1c1cc(-n2ccnc2)nc(-c2noc3c2CCC[C@@]32CCCc3sc(N)c(C#N)c32)n1 [II-142] | 2200 | – | 2640 | 1770 |
| C[C@H](Oc1cc(N2CCOC2=O)nc(-c2noc3c2CCC[C@@]32CCCc3sc(N)c(C#N)c32)n1)[C@@H]1CCCN1C [II-143] | 5 | 57 | 96 | 2 |
| C[C@H](Oc1cc(-c2ccn(C)n2)nc(-c2noc3c2CCC[C@@]32CCCc3sc(N)c(C#N)c32)n1)[C@@H]1C[C@H](F)CN1C [II-144] | 2 | 75 | 2840 | – |
| C[C@H](Oc1cc(N2CCN(C)C3(COC3)C2)nc(-c2noc3c2CCC[C@@]32CCCc3sc(N)c(C#N)c32)n1)[C@@H]1C[C@@H](F)CN1C [II-148] | 99 | 52 | 109 | 162 |
| C[C@H](Oc1cc(N2CCN(C)C3(CC3)C2)nc(-c2noc3c2CCC[C@@]32CCCc3sc(N)c(C#N)c32)n1)[C@@H]1C[C@@H](F)CN1C [II-149] | 333 | 45 | 270 | 412 |
| C[C@H](Oc1cc(N2CCNC3(COC3)C2)nc(-c2noc3c2CCC[C@@]32CCCc3sc(N)c(C#N)c32)n1)[C@@H]1C[C@@H](F)CN1C [II-150] | 55 | 64 | 81 | 77 |
| C[C@H](Oc1cc(N2CCN(C)C3(CCOC3)C2)nc(-c2noc3c2CCC[C@@]32CCCc3sc(N)c(C#N)c32)n1)[C@@H]1C[C@@H](F)CN1C (some centres unmarked) [II-151] | 393 | 59 | 1060 | 655 |
| CO[C@@H]1C[C@@H]([C@H](C)Oc2cc(N3CCN(C)C4(CC4)C3)nc(-c3noc4c3CCC[C@@]43CCCc4sc(N)c(C#N)c43)n2)N(C)C1 [II-152] | 1290 | 58 | 650 | 1190 |
| CO[C@@H]1C[C@@H]([C@H](C)Oc2cc(N3CCN(C)C4(COC4)C3)nc(-c3noc4c3CCC[C@@]43CCCc4sc(N)c(C#N)c43)n2)N(C)C1 [II-153] | 1560 | 58 | 283 | 2380 |
| C[C@H](Oc1cc(-n2cc3c(n2)CNC3)nc(-c2noc3c2CCC[C@@]32CCCc3sc(N)c(C#N)c32)n1)[C@@H]1C[C@@H](F)CN1C [II-154] | 245 | 76 | 904 | 135 |
| C[C@H](Oc1nc(-c2noc3c2CCC[C@@]32CCCc3sc(N)c(C#N)c32)nc(N2CCNC3(CC3)C2)c1F)[C@@H]1C[C@@H](F)CN1C [II-155] | 169 | 70 | 107 | 185 |
| C[C@H](Oc1nc(-c2noc3c2CCC[C@@]32CCCc3sc(N)c(C#N)c32)nc(N2CCNC3(CC3)C2)c1Cl)[C@@H]1C[C@@H](F)CN1C [II-156] | 353 | 65 | 226 | 271 |
| C[C@H](Oc1nc(-c2noc3c2CCC[C@@]32CCCc3sc(N)c(C#N)c32)nc(N2C[C@H](C)NC3(CC3)C2)c1F)[C@@H]1C[C@@H](F)CN1C [II-157] | 244 | 69 | 136 | 258 |
| C[C@H](Oc1cc([C@H]2CCNC2)nc(-c2noc3c2CCC[C@@]32CCCc3sc(N)c(C#N)c32)n1)[C@@H]1CCCN1C [II-163] | 373 | – | 1090 | 322 |
| CCN1CCN(c2cc(O[C@@H](C)[C@@H]3C[C@@H](F)CN3C)nc(-c3noc4c3CCC[C@@]43CCCc4sc(N)c(C#N)c43)n2)CC12CC2 [II-185] | 305 | – | 714 | 334 |
| C[C@H](NC(=O)c1ccn(-c2cc(O[C@@H](C)[C@@H]3CCCN3C)nc(-c3noc4c3CCC[C@@]43CCCc4sc(N)c(C#N)c43)n2)n1)c1ccccn1 [II-191] | 3 | 32 | 13 | – |
| C[C@H](Oc1cc(-n2ccc(-c3cn([C@H]4CCOC4)nn3)n2)nc(-c2noc3c2CCC[C@@]32CCCc3sc(N)c(C#N)c32)n1)[C@@H]1CCCN1C [II-212] | 2 | <24 | 35 | – |
| CNC1CCN(c2cc(O[C@@H](C)[C@@H]3CCCN3C)nc(-c3noc4c3CCC[C@@]43CCCc4sc(N)c(C#N)c43)n2)CC1 [II-214] | 1900 | <24 | – | 1360 |
